Publication PMC8564113, “Erianin: A Direct NLRP3 Inhibitor With Remarkable Anti-Inflammatory Activity” (Frontiers in Immunology, 2021)

Target: T1, NLRP3 (Homo sapiens, UniProt Q96P20)
T1 construct: purified human GST-NLRP3
Assay: microscale thermophoresis with purified GST-NLRP3; also biotin-Eri pull-down and ATPase inhibition
Type: binding

T1 sequence (Q96P20 whole entry): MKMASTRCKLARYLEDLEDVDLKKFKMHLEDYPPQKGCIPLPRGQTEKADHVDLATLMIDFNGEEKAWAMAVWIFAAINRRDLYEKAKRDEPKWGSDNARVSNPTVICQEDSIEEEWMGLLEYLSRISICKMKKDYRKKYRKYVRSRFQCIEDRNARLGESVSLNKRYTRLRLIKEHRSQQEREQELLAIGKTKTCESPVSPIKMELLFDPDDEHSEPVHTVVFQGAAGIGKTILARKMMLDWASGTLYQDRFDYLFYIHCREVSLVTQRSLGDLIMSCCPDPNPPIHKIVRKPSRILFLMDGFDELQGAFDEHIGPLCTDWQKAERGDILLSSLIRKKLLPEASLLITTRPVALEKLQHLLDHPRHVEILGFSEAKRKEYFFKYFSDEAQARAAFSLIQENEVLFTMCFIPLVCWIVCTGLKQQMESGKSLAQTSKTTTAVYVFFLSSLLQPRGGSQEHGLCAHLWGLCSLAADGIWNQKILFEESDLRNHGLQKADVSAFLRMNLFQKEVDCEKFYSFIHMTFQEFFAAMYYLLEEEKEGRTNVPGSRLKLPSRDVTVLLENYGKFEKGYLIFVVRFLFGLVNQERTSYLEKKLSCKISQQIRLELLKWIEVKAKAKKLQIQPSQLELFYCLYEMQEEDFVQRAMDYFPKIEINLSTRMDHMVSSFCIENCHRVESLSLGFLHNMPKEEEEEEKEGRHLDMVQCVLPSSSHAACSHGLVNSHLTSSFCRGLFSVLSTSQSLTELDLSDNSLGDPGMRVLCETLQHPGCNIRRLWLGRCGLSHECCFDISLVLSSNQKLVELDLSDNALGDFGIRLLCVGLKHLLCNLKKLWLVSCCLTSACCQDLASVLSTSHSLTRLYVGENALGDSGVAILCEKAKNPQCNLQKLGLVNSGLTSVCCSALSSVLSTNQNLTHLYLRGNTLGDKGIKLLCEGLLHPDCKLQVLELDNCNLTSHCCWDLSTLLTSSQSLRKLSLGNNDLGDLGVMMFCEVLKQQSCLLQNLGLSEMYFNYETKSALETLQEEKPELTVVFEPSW

SMILES: COc1ccc(CCc2cc(OC)c(OC)c(OC)c2)cc1O [Eri, Erianin]
- Kd: ~0.05 µM
